PubChem BioAssay (NCI)
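Test compounds were applied to cells in 96-well plates for 48 hours at 5 doses. TGI: total growth inhibition.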

Legend:
Experiment in all cases: NCI-60 cell line screen, 48 h
MCF7 breast = test system: MCF7 breast
OVCAR-3 ovarian = test system: OVCAR-3 ovarian
786-0 renal = test system: 786-0 renal
SR leukemia = test system: SR leukemia
MDA-MB-231 breast = test system: MDA-MB-231 breast
NCI-H460 lung = test system: NCI-H460 lung
SK-MEL-2 melanoma = test system: SK-MEL-2 melanoma
ACHN renal = test system: ACHN renal
SF-539 CNS = test system: SF-539 CNS
OVCAR-4 ovarian = test system: OVCAR-4 ovarian
HL-60(TB) leukemia = test system: HL-60(TB) leukemia
BT-549 breast = test system: BT-549 breast
COLO 205 colon = test system: COLO 205 colon
IGROV1 ovarian = test system: IGROV1 ovarian
NCI-H23 lung = test system: NCI-H23 lung
OVCAR-8 ovarian = test system: OVCAR-8 ovarian
NCI-H522 lung = test system: NCI-H522 lung
CAKI-1 renal = test system: CAKI-1 renal
SW-620 colon = test system: SW-620 colon
CCRF-CEM leukemia = test system: CCRF-CEM leukemia
MALME-3M melanoma = test system: MALME-3M melanoma
SF-295 CNS = test system: SF-295 CNS
RXF 393 renal = test system: RXF 393 renal
MDA-MB-435 = test system: MDA-MB-435
U251 CNS = test system: U251 CNS
LOX IMVI melanoma = test system: LOX IMVI melanoma
MOLT-4 leukemia = test system: MOLT-4 leukemia
DU-145 prostate = test system: DU-145 prostate
HOP-62 NSCLC = test system: HOP-62 NSCLC
OVCAR-5 ovarian = test system: OVCAR-5 ovarian
HCC-2998 colon = test system: HCC-2998 colon
RPMI-8226 leukemia = test system: RPMI-8226 leukemia
MDA-N = test system: MDA-N
K-562 leukemia = test system: K-562 leukemia
PC-3 prostate = test system: PC-3 prostate
TK-10 renal = test system: TK-10 renal
M14 melanoma = test system: M14 melanoma
A498 renal = test system: A498 renal
NCI-H226 lung = test system: NCI-H226 lung
HT29 colon = test system: HT29 colon
T-47D breast = test system: T-47D breast
HCT-116 colon = test system: HCT-116 colon
A549 NSCLC = test system: A549 NSCLC
SN12C renal = test system: SN12C renal
NCI/ADR-RES ovarian = test system: NCI/ADR-RES ovarian
UO-31 renal = test system: UO-31 renal
EKVX NSCLC = test system: EKVX NSCLC
HOP-92 NSCLC = test system: HOP-92 NSCLC
UACC-257 melanoma = test system: UACC-257 melanoma
KM12 colon = test system: KM12 colon
HS 578T breast = test system: HS 578T breast
HCT-15 colon = test system: HCT-15 colon
SK-MEL-28 melanoma = test system: SK-MEL-28 melanoma
SF-268 CNS = test system: SF-268 CNS
SK-OV-3 ovarian = test system: SK-OV-3 ovarian
SK-MEL-5 melanoma = test system: SK-MEL-5 melanoma
UACC-62 melanoma = test system: UACC-62 melanoma
SNB-19 CNS = test system: SNB-19 CNS

## C[C@H](CCC(=O)NN)[C@H]1CC[C@H]2[C@@H]3CC[C@@H]4C[C@H](O)CC[C@]4(C)[C@H]3CC[C@]12C
MCF7 breast
  TGI: 97.1 µM
OVCAR-3 ovarian
  TGI: > 100 µM
786-0 renal
  TGI: > 100 µM
SR leukemia
  TGI: 62.2 µM
MDA-MB-231 breast
  TGI: > 100 µM
NCI-H460 lung
  TGI: > 100 µM
SK-MEL-2 melanoma
  TGI: > 100 µM
ACHN renal
  TGI: > 100 µM
SF-539 CNS
  TGI: > 100 µM
OVCAR-4 ovarian
  TGI: > 100 µM
HL-60(TB) leukemia
  TGI: 37.6 µM
BT-549 breast
  TGI: > 100 µM
COLO 205 colon
  TGI: > 96 µM
IGROV1 ovarian
  TGI: > 100 µM
NCI-H23 lung
  TGI: > 100 µM
OVCAR-8 ovarian
  TGI: > 100 µM
NCI-H522 lung
  TGI: > 70.1 µM
CAKI-1 renal
  TGI: > 100 µM
SW-620 colon
  TGI: > 100 µM
CCRF-CEM leukemia
  TGI: > 72.1 µM
MALME-3M melanoma
  TGI: > 100 µM
SF-295 CNS
  TGI: > 100 µM
RXF 393 renal
  TGI: 67.2 µM
MDA-MB-435
  TGI: > 100 µM
U251 CNS
  TGI: > 100 µM
LOX IMVI melanoma
  TGI: > 100 µM
MOLT-4 leukemia
  TGI: > 52.7 µM
DU-145 prostate
  TGI: > 88.8 µM
HOP-62 NSCLC
  TGI: > 100 µM
OVCAR-5 ovarian
  TGI: > 100 µM
HCC-2998 colon
  TGI: > 90.6 µM
RPMI-8226 leukemia
  TGI: 59.9 µM
MDA-N
  TGI: > 100 µM
K-562 leukemia
  TGI: 41.1 µM
PC-3 prostate
  TGI: > 100 µM
TK-10 renal
  TGI: > 93.8 µM
M14 melanoma
  TGI: 72.4 µM
A498 renal
  TGI: > 100 µM
NCI-H226 lung
  TGI: > 100 µM
HT29 colon
  TGI: > 100 µM
T-47D breast
  TGI: > 100 µM
HCT-116 colon
  TGI: > 100 µM
A549 NSCLC
  TGI: > 100 µM
SN12C renal
  TGI: > 100 µM
NCI/ADR-RES ovarian
  TGI: > 100 µM
UO-31 renal
  TGI: > 100 µM
EKVX NSCLC
  TGI: > 100 µM
HOP-92 NSCLC
  TGI: > 100 µM
UACC-257 melanoma
  TGI: > 100 µM
KM12 colon
  TGI: > 100 µM
HS 578T breast
  TGI: > 100 µM
HCT-15 colon
  TGI: > 100 µM
SK-MEL-28 melanoma
  TGI: > 100 µM
SF-268 CNS
  TGI: > 100 µM
SK-OV-3 ovarian
  TGI: > 100 µM
SK-MEL-5 melanoma
  TGI: 56.4 µM
UACC-62 melanoma
  TGI: > 100 µM
SNB-19 CNS
  TGI: > 100 µM
